Earlier results as cited in patent US20180338945A1, “SKIN ADHESIVES, ANTIMICROBIAL COMPOSITIONS, ARTICLES, AND METHODS FOR THE USE THEREOF” (DERMALINK TECHNOLOGIES, INC., priority 2015, published 2018).

Columns and labels:
E. coli = settings: pure LAE
A. brasiliensis = settings: pure LAE

## CCCCCCCCCCCC(=O)N[C@@H](CCCNC(=N)N)C(=O)OCC [LAE, N^α-lauroyl-arginine ethyl ester]
E. coli
  minimum inhibitory concentration (MIC): 16 micrograms per mL
A. brasiliensis
  minimum inhibitory concentration (MIC): 32 micrograms per mL
